Key:
[1] = Toxicity in Crl:CD1(ICR) mouse assessed as effect on central nervous system by measuring NOEL administered as single dose measured up to 24 hrs by Irwin's test; settings: in vivo
[2] = Aqueous thermodynamic solubility of the compound at pH 6.8 measured after 4 hrs by UV-HPLC analysis; format: physicochemical; settings: buffer, pH 6.8, 4 h; 4 h
[3] = Stability of the compound in mouse liver microsomes assessed as parent compound remaining measured after 0.5 hrs; format: ADME, Microsome; settings: microsomes, 0.5 h
[4] = Stability of the compound in rat liver microsomes assessed as parent compound remaining measured after 0.5 hrs; format: ADME, Microsome; settings: read-out: Stability
[5] = Stability of the compound in dog liver microsomes assessed as parent compound remaining measured after 0.5 hrs; format: ADME, Canis lupus familiaris, Microsome; settings: read-out: Stability
[6] = Stability of the compound in monkey liver microsomes assessed as parent compound remaining measured after 0.5 hrs; format: ADME, Macaca mulatta, Microsome; settings: rhesus monkey, read-out: Stability
[7] = Stability of the compound in human liver microsomes assessed as parent compound remaining measured after 0.5 hrs; format: ADME, Microsome; settings: read-out: Stability
[8] = Cmax in cynomolgus monkey at 1 mg/kg, iv or po by LC-MS/MS analysis; format: ADME, organism-based, Macaca fascicularis; settings: in vivo
[9] = Tmax in cynomolgus monkey at 1 mg/kg, iv or po by LC-MS/MS analysis; format: ADME, organism-based, Macaca fascicularis; settings: in vivo
[10] = Half life in cynomolgus monkey at 1 mg/kg, iv or po by LC-MS/MS analysis; format: ADME, organism-based, Macaca fascicularis; settings: in vivo
[11] = AUC (infinity) in cynomolgus monkey at 1 mg/kg, iv or po by LC-MS/MS analysis; format: ADME, organism-based, Macaca fascicularis; settings: in vivo
[12] = Oral bioavailability in cynomolgus monkey at 1 mg/kg by LC-MS/MS analysis; format: ADME, organism-based, Macaca fascicularis; settings: in vivo
[13] = Clearance in cynomolgus monkey at 1 mg/kg, iv by LC-MS/MS analysis; format: ADME, organism-based, Macaca fascicularis; settings: in vivo
[14] = Volume of distribution at steady state in cynomolgus monkey at 1 mg/kg, iv by LC-MS/MS analysis; format: ADME, organism-based, Macaca fascicularis; settings: in vivo, read-out: Vdss
[15] = Cmax in Beagle dog at 1 mg/kg, iv or po by LC-MS/MS analysis; format: ADME, organism-based, Canis lupus familiaris; settings: in vivo
[16] = Tmax in Beagle dog at 1 mg/kg, iv or po by LC-MS/MS analysis; format: ADME, organism-based, Canis lupus familiaris; settings: in vivo
[17] = Half life in Beagle dog at 1 mg/kg, iv or po by LC-MS/MS analysis; format: ADME, organism-based, Canis lupus familiaris; settings: in vivo
[18] = AUC (infinity) in Beagle dog at 1 mg/kg, iv or po by LC-MS/MS analysis; format: ADME, organism-based, Canis lupus familiaris; settings: in vivo
[19] = Oral bioavailability in Beagle dog at 1 mg/kg by LC-MS/MS analysis; format: ADME, organism-based, Canis lupus familiaris; settings: in vivo
[20] = Clearance in Beagle dog at 1 mg/kg, iv by LC-MS/MS analysis; format: ADME, organism-based, Canis lupus familiaris; settings: in vivo
[21] = Volume of distribution at steady state in Beagle dog at 1 mg/kg, iv by LC-MS/MS analysis; format: ADME, organism-based, Canis lupus familiaris; settings: in vivo, read-out: Vdss
[22] = Cmax in Sprague-Dawley rat at 1 mg/kg, iv or po by LC-MS/MS analysis; format: ADME, organism-based; settings: in vivo
[23] = Tmax in Sprague-Dawley rat at 1 mg/kg, iv or po by LC-MS/MS analysis; format: ADME, organism-based; settings: in vivo
[24] = Half life in Sprague-Dawley rat at 1 mg/kg, iv or po by LC-MS/MS analysis; format: ADME, organism-based; settings: in vivo
[25] = AUC (infinity) in Sprague-Dawley rat at 1 mg/kg, iv or po by LC-MS/MS analysis; format: ADME, organism-based; settings: in vivo
[26] = Oral bioavailability in Sprague-Dawley rat at 1 mg/kg by LC-MS/MS analysis; format: ADME, organism-based; settings: in vivo
[27] = Clearance in Sprague-Dawley rat at 1 mg/kg, iv by LC-MS/MS analysis; format: ADME, organism-based; settings: in vivo
[28] = Volume of distribution at steady state in Sprague-Dawley rat at 1 mg/kg, iv by LC-MS/MS analysis; format: ADME, organism-based; settings: in vivo, read-out: Vdss
[29] = Cmax in ddy mouse at 1 mg/kg, iv or po by LC-MS/MS analysis; format: ADME, organism-based; settings: in vivo
[30] = Tmax in ddy mouse at 1 mg/kg, iv or po by LC-MS/MS analysis; format: ADME, organism-based; settings: in vivo
[31] = Half life in ddy mouse at 1 mg/kg, iv or po by LC-MS/MS analysis; format: ADME, organism-based; settings: in vivo
[32] = AUC (infinity) in ddy mouse at 1 mg/kg, iv or po by LC-MS/MS analysis; format: ADME, organism-based; settings: in vivo
[33] = Oral bioavailability in ddy mouse at 1 mg/kg by LC-MS/MS analysis; format: ADME, organism-based; settings: in vivo
[34] = Clearance in ddy mouse at 1 mg/kg, iv by LC-MS/MS analysis; format: ADME, organism-based; settings: in vivo
[35] = Volume of distribution at steady state in ddy mouse at 1 mg/kg, iv by LC-MS/MS analysis; format: ADME, organism-based; settings: in vivo, read-out: Vdss
[36] = Cmax in ddy mouse at 3 mg/kg, iv or po by LC-MS/MS analysis; format: ADME, organism-based; settings: in vivo
[37] = Tmax in ddy mouse at 3 mg/kg, iv or po by LC-MS/MS analysis; format: ADME, organism-based; settings: in vivo
[38] = Half life in ddy mouse at 3 mg/kg, iv or po by LC-MS/MS analysis; format: ADME, organism-based; settings: in vivo
[39] = AUC (infinity) in ddy mouse at 3 mg/kg, iv or po by LC-MS/MS analysis; format: ADME, organism-based; settings: in vivo
[40] = Oral bioavailability in ddy mouse at 3 mg/kg by LC-MS/MS analysis; format: ADME, organism-based; settings: in vivo
[41] = Clearance in ddy mouse at 3 mg/kg, iv by LC-MS/MS analysis; format: ADME, organism-based; settings: in vivo
[42] = Volume of distribution at steady state in ddy mouse at 3 mg/kg, iv by LC-MS/MS analysis; format: ADME, organism-based; settings: in vivo, read-out: Vdss
[43] = Toxicity in Crl:CD1(ICR) mouse assessed as effect on spontaneous locomotor activity by measuring NOEL administered as single dose measured at 10 mins interval starting from 2 to 3 hrs; settings: in vivo
[44] = Toxicity in Crl:CD1(ICR) mouse assessed as effect on motor coordination by measuring NOEL administered as single dose measured after 0.5 to 2 hrs by rotarod test; settings: in vivo
[45] = Toxicity in Crl:CD1(ICR) mouse assessed as effect on respiratory system by measuring NOEL administered as single dose measured after 0.5 to 24 hrs by WBP method; settings: in vivo
[46] = Toxicity in cynomolgus monkey assessed as effect on cardiovascular system by measuring NOEL administered as single dose measured after 1 to 24 hrs by telemetry; design: species or system Macaca fascicularis; settings: in vivo
[47] = Chronic toxicity in male Crl:CD1(ICR) mouse assessed as NOAEL administered for 6 months; settings: in vivo
[48] = Chronic toxicity in female Crl:CD1(ICR) mouse assessed as NOAEL administered for 6 months; settings: in vivo
[49] = Chronic toxicity in male cynomolgus monkey assessed as NOAEL administered for 9 months; design: species or system Macaca fascicularis; settings: in vivo
[50] = Chronic toxicity in female cynomolgus monkey assessed as NOAEL administered for 9 months; design: species or system Macaca fascicularis; settings: in vivo
[51] = Cmax in male Crl:CD1(ICR) mouse at 1000 mg/kg administered for 6 months measured 24 hrs post last dose; format: ADME, organism-based; design: dose 1000 mg/kg; settings: in vivo
[52] = Cmax in female Crl:CD1(ICR) mouse at 1000 mg/kg administered for 6 months measured 24 hrs post last dose with 1 month recovery; format: ADME, organism-based; design: dose 1000 mg/kg; settings: in vivo
[53] = Cmax in male cynomolgus monkey at 1000 mg/kg administered for 9 months measured 24 hrs post last dose with 1 month recovery; format: ADME, organism-based, Macaca fascicularis; design: dose 1000 mg/kg; settings: in vivo
[54] = Cmax in female cynomolgus monkey at 1000 mg/kg administered for 9 months measured 24 hrs post last dose with 1 month recovery; format: ADME, organism-based, Macaca fascicularis; design: dose 1000 mg/kg; settings: in vivo
[55] = Tmax in male Crl:CD1(ICR) mouse at 1000 mg/kg administered for 6 months measured 24 hrs post last dose; format: ADME, organism-based; settings: in vivo
[56] = Tmax in female Crl:CD1(ICR) mouse at 1000 mg/kg administered for 6 months measured 24 hrs post last dose with 1 month recovery; format: ADME, organism-based; settings: in vivo
[57] = Tmax in male cynomolgus monkey at 1000 mg/kg administered for 9 months measured 24 hrs post last dose with 1 month recovery; format: ADME, organism-based, Macaca fascicularis; settings: in vivo
[58] = Tmax in female cynomolgus monkey at 1000 mg/kg administered for 9 months measured 24 hrs post last dose with 1 month recovery; format: ADME, organism-based, Macaca fascicularis; settings: in vivo
[59] = AUC (0 to 24 hrs) in male Crl:CD1(ICR) mouse at 1000 mg/kg administered for 6 months measured 24 hrs post last dose; format: ADME, organism-based; design: dose 1000 mg/kg, time < 24 hr; settings: in vivo
[60] = AUC (0 to 24 hrs) in female Crl:CD1(ICR) mouse at 1000 mg/kg administered for 6 months measured 24 hrs post last dose with 1 month recovery; format: ADME, organism-based; design: dose 1000 mg/kg, time < 24 hr; settings: in vivo
[61] = AUC (0 to 24 hrs) in male cynomolgus monkey at 1000 mg/kg administered for 9 months measured 24 hrs post last dose with 1 month recovery; format: ADME, organism-based, Macaca fascicularis; design: time < 24 hr, dose 1000 mg/kg; settings: in vivo
[62] = AUC (0 to 24 hrs) in female cynomolgus monkey at 1000 mg/kg administered for 9 months measured 24 hrs post last dose with 1 month recovery; format: ADME, organism-based, Macaca fascicularis; design: time < 24 hr, dose 1000 mg/kg; settings: in vivo

## Cn1nccc1[C@H]1CCCC[C@@H]1Oc1cc(F)c(S(=O)(=O)Nc2ccncn2)cc1Cl [DS-1971]
[1]
  NOAEL at 24 h: 1000 mg/kg
[2]
  Therm_solubility: 1500 µM
[3]
  Stability: 92%
[4]
  remaining at 0.5 h: 94%
[5]
  remaining at 0.5 h: 95%
[6]
  remaining at 0.5 h: 78%
[7]
  remaining at 0.5 h: 66%
[8]
  Cmax: 1570 nM
[9]
  Tmax: 0.83 h
[10]
  half-life: 3.69 h
[11]
  AUC(0-inf): 2.06 µM·h
[12]
  bioavailability: 35%
[13]
  clearance: 6.55 mL/min/kg
[14]
  Vd: 0.15 L/kg
[15]
  Cmax: 1710 nM
[16]
  Tmax: 0.5 h
[17]
  half-life: 4 h
[18]
  AUC(0-inf): 3.23 µM·h
[19]
  bioavailability: 77%
[20]
  clearance: 8.7 mL/min/kg
[21]
  Vd: 0.57 L/kg
[22]
  Cmax: 103 nM
[23]
  Tmax: 0.5 h
[24]
  half-life: 0.77 h
[25]
  AUC(0-inf): 0.103 µM·h
[26]
  bioavailability: 16%
[27]
  clearance: 47 mL/min/kg
[28]
  Vd: 1.2 L/kg
[29]
  Cmax: 105 nM
[30]
  Tmax: 5 min
[31]
  half-life: 2.02 h
[32]
  AUC(0-inf): 0.0689 µM·h
[33]
  bioavailability: 15%
[34]
  clearance: 78.7 mL/min/kg
[35]
  Vd: 1.37 L/kg
[36]
  Cmax: 464 nM
[37]
  Tmax: 0.25 h
[38]
  half-life: 1.54 h
[39]
  AUC(0-inf): 0.277 µM·h
[40]
  bioavailability: 11%
[41]
  clearance: 45.3 mL/min/kg
[42]
  Vd: 0.565 L/kg
[43]
  NOAEL: 1000 mg/kg
[44]
  NOAEL: 1000 mg/kg
[45]
  NOAEL: 1000 mg/kg
[46]
  NOAEL: 1000 mg/kg
[47]
  NOAEL at 6 months: 1000 mg/kg
[48]
  NOAEL at 6 months: 1000 mg/kg
[49]
  NOAEL at 9 months: 1000 mg/kg
[50]
  NOAEL at 9 months: 1000 mg/kg
[51]
  Cmax: 9440 nM
[52]
  Cmax: 105000 nM
[53]
  Cmax: 28100 nM
[54]
  Cmax: 22500 nM
[55]
  Tmax: 0.5 h
[56]
  Tmax: 6 h
[57]
  Tmax: 1.2 h
[58]
  Tmax: 1.2 h
[59]
  AUC(0-t) at 24 h: 65.9 µM·h
[60]
  AUC(0-t) at 24 h: 1400 µM·h
[61]
  AUC(0-t) at 24 h: 146 µM·h
[62]
  AUC(0-t) at 24 h: 100 µM·h

From ChEMBL document CHEMBL4622872, “Discovery of DS-1971a, a Potent, Selective NaV1.7 Inhibitor” (J Med Chem, 2020)
